Data from ChEMBL document CHEMBL1201862, “PubChem BioAssay data set” (2004).
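Assay format: 96-well plates, 48-hour exposure. At the GI50, growth is halved.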 The source made the active and inactive calls. Cut-off read from the data, not from the text of the source: active = GI50 up to about 1.1 µM and inactive = higher.

Columns and labels:
Experiment in all cases: NCI-60 cell line screen, 48 h
[1] = tested on: CAKI-1
[2] = tested on: SN12C
[3] = tested on: SR
[4] = tested on: NCI-H23
[5] = tested on: SF-295
[6] = tested on: OVCAR-4
[7] = tested on: UACC-62
[8] = tested on: SK-MEL-5
[9] = tested on: TK-10
[10] = tested on: HT-29
[11] = tested on: MCF7
[12] = tested on: SK-OV-3
[13] = tested on: PC-3
[14] = tested on: SW-620
[15] = tested on: A549
[16] = tested on: SNB-75
[17] = tested on: Malme-3M
[18] = tested on: M14
[19] = tested on: SK-MEL-28
[20] = tested on: RPMI-8226
[21] = tested on: COLO 205
[22] = tested on: HCT-15
[23] = tested on: MOLT-4
[24] = tested on: SF-268
[25] = tested on: KM12
[26] = tested on: LOX IMVI
[27] = tested on: HOP-92
[28] = tested on: MDA-N
[29] = tested on: HCC 2998
[30] = tested on: 786-0
[31] = tested on: MDA-MB-231
[32] = tested on: HL-60
[33] = tested on: IGROV-1
[34] = tested on: UACC-257
[35] = tested on: MDA-MB-435
[36] = tested on: K562
[37] = tested on: OVCAR-8
[38] = tested on: T47D
[39] = tested on: CCRF-CEM
[40] = tested on: HOP-62
[41] = tested on: DU-145
[42] = tested on: RXF 393
[43] = tested on: EKVX
[44] = tested on: SK-MEL-2
[45] = tested on: NCI-H460
[46] = tested on: OVCAR-5
[47] = tested on: OVCAR-3
[48] = tested on: U-251
[49] = tested on: A498
[50] = tested on: SNB-19
[51] = tested on: Hs-578T
[52] = tested on: NCI-H226
[53] = tested on: SF-539
[54] = tested on: NCI/ADR-RES
[55] = tested on: ACHN
[56] = tested on: NCI-H522
[57] = tested on: UO-31
[58] = tested on: HCT-116

Question: How did the GI50 [1] turn out when `CCN(CC)CCN1CCN=C2c3cc(OC)ccc3Nc3c([N+](=O)[O-])ccc1c32` was run?
Answer: 1.93 µM (inactive)

Question: What about the GI50 [2] of the same molecule?
Answer: 0.667 µM (active)

Question: What about the GI50 [3] of the same molecule?
Answer: 0.221 µM (active)

Question: And the GI50 [4]?
Answer: 1.1 µM (active)

Question: What about the GI50 [5] of the same molecule?
Answer: 1.82 µM (inactive)

Question: What about the GI50 [6] of the same molecule?
Answer: 1.07 µM (active)

Question: And the GI50 [7]?
Answer: 1 µM (active)

Question: And the GI50 [8]?
Answer: 1.55 µM (inactive)

Question: What about the GI50 [9] of the same molecule?
Answer: 2.8 µM (inactive)

Question: What about the GI50 [10] of the same molecule?
Answer: 0.881 µM (active)

Question: And the GI50 [11]?
Answer: 0.551 µM (active)

Question: What about the GI50 [12] of the same molecule?
Answer: 2.52 µM (inactive)

Question: What about the GI50 [13] of the same molecule?
Answer: 0.697 µM (active)

Question: What about the GI50 [14] of the same molecule?
Answer: 0.449 µM (active)

Question: And the GI50 [15]?
Answer: 1.24 µM (inactive)

Question: What about the GI50 [16] of the same molecule?
Answer: 1.95 µM (inactive)

Question: What about the GI50 [17] of the same molecule?
Answer: 1.54 µM (inactive)

Question: And the GI50 [18]?
Answer: 1 µM (active)

Question: What about the GI50 [19] of the same molecule?
Answer: 1 µM (active)

Question: And the GI50 [20]?
Answer: 0.64 µM (active)

Question: And the GI50 [21]?
Answer: 1 µM (active)

Question: And the GI50 [22]?
Answer: 0.845 µM

Question: And the GI50 [23]?
Answer: 0.288 µM (active)

Question: And the GI50 [24]?
Answer: 0.501 µM (active)

Question: And the GI50 [25]?
Answer: 1.15 µM (inactive)

Question: And the GI50 [26]?
Answer: 1.41 µM (inactive)

Question: And the GI50 [27]?
Answer: 2.21 µM (inactive)

Question: What about the GI50 [28] of the same molecule?
Answer: 1.04 µM (active)

Question: And the GI50 [29]?
Answer: 0.555 µM (active)

Question: What about the GI50 [30] of the same molecule?
Answer: 0.369 µM (active)

Question: And the GI50 [31]?
Answer: 0.671 µM (active)

Question: What about the GI50 [32] of the same molecule?
Answer: 0.519 µM (active)

Question: And the GI50 [33]?
Answer: 1.72 µM (inactive)

Question: What about the GI50 [34] of the same molecule?
Answer: 2.59 µM (inactive)

Question: And the GI50 [35]?
Answer: 1.28 µM (inactive)

Question: And the GI50 [36]?
Answer: 0.575 µM (active)

Question: What about the GI50 [37] of the same molecule?
Answer: 0.441 µM (active)

Question: And the GI50 [38]?
Answer: 5.65 µM (inactive)

Question: What about the GI50 [39] of the same molecule?
Answer: 0.388 µM (active)

Question: What about the GI50 [40] of the same molecule?
Answer: 0.56 µM (active)

Question: And the GI50 [41]?
Answer: 2.8 µM (inactive)

Question: What about the GI50 [42] of the same molecule?
Answer: 0.843 µM (active)

Question: What about the GI50 [43] of the same molecule?
Answer: 1.69 µM (inactive)

Question: How did the GI50 [1] turn out when `CCCc1cc2c(cc1O)CC[C@@H]1[C@@H]2CC[C@]2(C)[C@@H](O)CC[C@@H]12` was run?
Answer: 11.3 µM (inactive)

Question: And the GI50 [44]?
Answer: 15.1 µM (inactive)

Question: What about the GI50 [2] of the same molecule?
Answer: 11.7 µM (inactive)

Question: And the GI50 [3]?
Answer: 3.61 µM (inactive)

Question: And the GI50 [45]?
Answer: 10.7 µM (inactive)

Question: What about the GI50 [4] of the same molecule?
Answer: 14.1 µM (inactive)

Question: And the GI50 [5]?
Answer: 5.82 µM (inactive)

Question: What about the GI50 [46] of the same molecule?
Answer: 19.5 µM (inactive)

Question: And the GI50 [47]?
Answer: 11.8 µM (inactive)

Question: What about the GI50 [6] of the same molecule?
Answer: 17.7 µM (inactive)

Question: What about the GI50 [8] of the same molecule?
Answer: 10.5 µM (inactive)

Question: What about the GI50 [9] of the same molecule?
Answer: 16.2 µM (inactive)

Question: And the GI50 [10]?
Answer: 16.3 µM (inactive)

Question: And the GI50 [12]?
Answer: 14.6 µM (inactive)

Question: And the GI50 [48]?
Answer: 6.62 µM (inactive)

Question: What about the GI50 [13] of the same molecule?
Answer: 13.4 µM (inactive)

Question: What about the GI50 [14] of the same molecule?
Answer: 3.95 µM (inactive)

Question: What about the GI50 [15] of the same molecule?
Answer: 10.6 µM (inactive)

Question: What about the GI50 [16] of the same molecule?
Answer: 13.5 µM (inactive)

Question: What about the GI50 [17] of the same molecule?
Answer: 13 µM (inactive)

Question: What about the GI50 [18] of the same molecule?
Answer: 10.5 µM (inactive)

Question: And the GI50 [19]?
Answer: 13.1 µM (inactive)

Question: What about the GI50 [21] of the same molecule?
Answer: 18.2 µM (inactive)

Question: And the GI50 [22]?
Answer: 4.98 µM

Question: What about the GI50 [23] of the same molecule?
Answer: 5.6 µM (inactive)

Question: What about the GI50 [49] of the same molecule?
Answer: 17.9 µM (inactive)

Question: What about the GI50 [24] of the same molecule?
Answer: 13.2 µM (inactive)

Question: And the GI50 [50]?
Answer: 12.9 µM (inactive)

Question: What about the GI50 [51] of the same molecule?
Answer: 10.1 µM (inactive)

Question: What about the GI50 [25] of the same molecule?
Answer: 9.12 µM (inactive)

Question: What about the GI50 [26] of the same molecule?
Answer: 10.5 µM (inactive)

Question: And the GI50 [52]?
Answer: 13.4 µM (inactive)

Question: And the GI50 [53]?
Answer: 10.8 µM (inactive)

Question: What about the GI50 [54] of the same molecule?
Answer: 6.32 µM (inactive)

Question: What about the GI50 [27] of the same molecule?
Answer: 19.1 µM (inactive)

Question: What about the GI50 [28] of the same molecule?
Answer: 2.29 µM (inactive)

Question: And the GI50 [29]?
Answer: 16.5 µM (inactive)

Question: What about the GI50 [55] of the same molecule?
Answer: 12.9 µM (inactive)

Question: And the GI50 [30]?
Answer: 13.6 µM (inactive)

Question: And the GI50 [56]?
Answer: 8.32 µM (inactive)

Question: What about the GI50 [31] of the same molecule?
Answer: 17.3 µM (inactive)

Question: What about the GI50 [32] of the same molecule?
Answer: 12.6 µM (inactive)

Question: And the GI50 [57]?
Answer: 12 µM (inactive)

Question: What about the GI50 [33] of the same molecule?
Answer: 15.2 µM (inactive)

Question: What about the GI50 [34] of the same molecule?
Answer: 13.1 µM (inactive)

Question: And the GI50 [36]?
Answer: 3.17 µM (inactive)

Question: And the GI50 [37]?
Answer: 14.4 µM (inactive)

Question: What about the GI50 [38] of the same molecule?
Answer: 10.6 µM (inactive)

Question: What about the GI50 [39] of the same molecule?
Answer: 5.41 µM (inactive)

Question: What about the GI50 [42] of the same molecule?
Answer: 10.2 µM (inactive)

Question: And the GI50 [43]?
Answer: 12.7 µM (inactive)

Question: Which results are given for `CCOC(=O)C(Cl)(NC(=O)NC(Cl)(C(=O)OCC)C(F)(F)F)C(F)(F)F` (stereo not drawn)?
Answer: GI50 [44]: > 100 µM (inactive); GI50 [58]: > 100 µM (inactive); GI50 [2]: > 100 µM (inactive); GI50 [3]: > 100 µM (inactive); GI50 [4]: > 100 µM (inactive); GI50 [46]: > 100 µM (inactive); GI50 [10]: > 100 µM (inactive); GI50 [12]: > 100 µM (inactive); GI50 [48]: > 100 µM (inactive); GI50 [13]: > 100 µM (inactive); GI50 [16]: > 100 µM (inactive); GI50 [19]: > 100 µM (inactive); GI50 [20]: > 100 µM (inactive); GI50 [21]: > 100 µM (inactive); GI50 [22]: > 100 µM; GI50 [23]: > 100 µM (inactive); GI50 [49]: > 100 µM (inactive); GI50 [24]: > 100 µM (inactive); GI50 [50]: > 100 µM (inactive); GI50 [51]: > 100 µM (inactive); GI50 [26]: > 100 µM (inactive); GI50 [53]: > 100 µM (inactive); GI50 [54]: > 100 µM (inactive); GI50 [28]: > 100 µM (inactive); GI50 [29]: > 100 µM (inactive); GI50 [55]: > 100 µM (inactive); GI50 [30]: > 100 µM (inactive); GI50 [32]: > 100 µM (inactive); GI50 [57]: > 100 µM (inactive); GI50 [34]: > 100 µM (inactive); GI50 [36]: > 100 µM (inactive); GI50 [39]: > 100 µM (inactive); GI50 [42]: > 100 µM (inactive)

Question: For `Cc1cc(-c2nc3ccc(O)cc3s2)ccc1N`, which GI50 [1] is on record?
Answer: 34.8 µM (inactive)
